Results reported in US20160095855A1, “USE OF A POLYMORPH OF FLIBANSERIN FOR TREATING DISEASE” (Sprout Pharmaceuticals, Inc., priority 2001, published 2016).

Columns and labels:
5-HT2-receptor = conditions: qualitative background statement; cited from earlier work
5-HT1A receptor = molecular target: T1, 5-HT1A receptor (Homo sapiens, UniProt P08908); conditions: qualitative background statement; cited from earlier work
T1 sequence (P08908 1-422): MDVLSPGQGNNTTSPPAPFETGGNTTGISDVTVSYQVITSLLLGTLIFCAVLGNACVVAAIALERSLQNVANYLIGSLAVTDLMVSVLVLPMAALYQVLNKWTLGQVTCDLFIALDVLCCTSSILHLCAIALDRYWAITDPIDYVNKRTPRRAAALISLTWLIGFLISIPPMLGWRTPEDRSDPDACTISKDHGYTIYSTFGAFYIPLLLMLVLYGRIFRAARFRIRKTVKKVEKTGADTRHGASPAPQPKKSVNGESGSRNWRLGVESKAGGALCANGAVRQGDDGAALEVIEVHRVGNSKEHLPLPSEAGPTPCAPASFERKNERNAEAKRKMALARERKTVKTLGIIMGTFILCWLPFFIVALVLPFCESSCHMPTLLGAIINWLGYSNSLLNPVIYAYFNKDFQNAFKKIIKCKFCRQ

[1] = stability under mechanical stress produced by grinding; assay type: physicochemical; conditions: solid state, crystalline modification of free base

Row | Compound | affinity for the 5-HT2-receptor (5-HT2-receptor) | affinity for the 5-HT1A receptor (5-HT1A receptor) | stability under the effects of mechanical stress produced by grinding [1]
1 | O=c1[nH]c2ccccc2n1CCN1CCN(c2cccc(C(F)(F)F)c2)CC1 [Flibanserin, 1-[2-(4-(3-trifluoromethyl-phenyl)piperazin-1-yl)ethyl]-2,3-dihydro-1H-benzimidazol-2-one] | shows affinity | shows affinity | 
2 | O=c1[nH]c2ccccc2n1CCN1CCN(c2cccc(C(F)(F)F)c2)CC1 [polymorph A, 1-[2-(4-(3-trifluoromethyl-phenyl)piperazin-1-yl)ethyl]-2,3-dihydro-1H-benzimidazol-2-one] |  |  | fulfill the aforementioned stability requirements
3 | O=c1[nH]c2ccccc2n1CCN1CCN(c2cccc(C(F)(F)F)c2)CC1 [polymorph B, 1-[2-(4-(3-trifluoromethyl-phenyl)piperazin-1-yl)ethyl]-2,3-dihydro-1H-benzimidazol-2-one] |  |  | little stability
